Data set [1] can be described thus: Viscosity response: fluorescence in glycerin vs methanol (Test Example 1). The data set is classed as physicochemical. Particulars: final concentration 1×10^−5 M; for Glycerin/Methanol Fluorescence Intensity Ratio: excited at maximum excitation wavelength of each dye; for Maximum Excitation Wavelength (nm): glycerin and methanol.
The subject of data set [2] is RNA aptamer. The data set is described as follows: Optical properties after binding to RNA aptamer (Test Example 4). The data set is classed as biochemical. Particulars: for Em/nm / Ex/nm / ε / QY (−): after binding to RNA aptamer; for QY (−): relative method with Rhodamine 6G as the standard; for compound fluorescence after binding to RNA aptamer: excited at a suitable wavelength.

Data set [3] is described as follows: Fluorescence emission at different viscosity conditions, diethanol-glycerol mixed solution (Test Example 2). The data set is classed as physicochemical. The settings on record: 1×10^−5 M, excited at 480 nm.
The test system of data set [4] is RNA aptamer. Put plainly: Labeling intracellular RNA aptamer in cells (Test Example 4, FIG. 20A/20B). Format: cell-based. The settings on record: for fluorescence of cells expressing the RNA aptamer: FIG. 20A; for fluorescence of cells not expressing the RNA aptamer: FIG. 20B. The text has this: FIGS. 20A and 20B are the application of molecular rotors IV-1, IV-2, IV-3, IV-4, IV-5, IV-6, IV-17, IV-18, IV-19, IV-20, IV-21, IV-22 in labeling intracellular RNA aptamer, wherein FIG. 20A are cells expressing the target RNA aptamer, and FIG. 20B are cells not expressing the target RNA aptamer;

`CCCCCCN(CCCCCC)c1cnc(/C=C2N=C(/C=C/c3cccc(Cl)c3)N(C)C\2=O)cn1` [IV-25]: in data set [1], the “Glycerin/Methanol Fluorescence Intensity Ratio” value was 918 and the “Maximum Excitation Wavelength (nm)” value worked out at 591 nm.
In the case of `CN1C(=O)/C(=C/c2cc(F)c(O)c(F)c2)N=C1/C=C/c1cccc(F)c1` [IV-6], in data set [2], the Em/nm is 578 nm, the Ex/nm is reported as 490 nm, the “ε” value was determined as 24000 M⁻¹ cm⁻¹ and the “QY (−)” value is on record as 0.37. Also, the “compound fluorescence after binding to RNA aptamer” value (“compound fluorescence after binding” for short) in data set [2] is on record as “noticeably activated”. The “fluorescence intensity at different viscosity conditions” value in data set [3] is recorded as “gradually increasing fluorescence intensity”. Moreover, in data set [4], the “fluorescence of cells expressing the RNA aptamer” value was “bright fluorescence” and the “fluorescence of cells not expressing the RNA aptamer” value is on record as “no fluorescence”. Moreover, in data set [1], the “Glycerin/Methanol Fluorescence Intensity Ratio” value turned out to be 921 and the “Maximum Excitation Wavelength (nm)” value was 578 nm.
Turning to `CN1C(=O)/C(=C/c2ccc(O)c(F)c2)N=C1/C=C/c1ccc(C#N)cc1` [IV-9], in data set [1], the “Glycerin/Methanol Fluorescence Intensity Ratio” value worked out at 697 and the “Maximum Excitation Wavelength (nm)” value turned out to be 615 nm.
The matching figures for `COC(=O)CNCCN(C)c1ccc(/C=C2N=C(/C=C/c3ccc(Br)cc3)N(C)C\2=O)cc1` [IV-30]: 921 and 582 nm.
For `CN1C(=O)/C(=C/c2ccc3cc(N(C)CCO)ccc3c2)N=C1/C=C/c1cccc(O)c1` [IV-36], in that order: 792 and 690 nm.
The matching figures for `CN1C(=O)/C(=C/c2ccc(N(C)CCN)cc2)N=C1/C=C/c1cccc(F)c1` [IV-31]: 902 and 581 nm.
As for `CN1C(=O)/C(=C/c2ccc3c(c2)OCCN3C)N=C1/C=C/c1ccc(F)cc1` [IV-34], in data set [1], the “Glycerin/Methanol Fluorescence Intensity Ratio” value was 810 and the “Maximum Excitation Wavelength (nm)” value turned out to be 603 nm.
The matching figures for `CN1C(=S)/C(=C/c2cc(F)c(O)c(F)c2)N=C1/C=C/c1ccc(C#N)cc1` [IV-8]: 861 and 638 nm.
The matching figures for `CCCN1C(=O)/C(=C/c2cc3c4c(c2)CCCN4CCC3)N=C1/C=C/c1ccc(C#N)cc1` [IV-27]: 890 and 600 nm.
For `CN1C(=O)/C(=C/c2cnc3cc(N(C)C)ccc3c2)N=C1/C=C/c1cccc(C#N)c1` [IV-38], in that order: 529 and 705 nm.
As for `CN1C(=O)/C(=C/c2ccc(N(C)CCO)cc2)N=C1/C=C/c1cccc(C#N)c1` [IV-18], in data set [2], the Em/nm worked out at 600 nm, the Ex/nm turned out to be 536 nm, the “ε” value turned out to be 25000 M⁻¹ cm⁻¹ and the “QY (−)” value is 0.43. In addition, the “compound fluorescence after binding” value in data set [2] is recorded as “noticeably activated”. Also, in data set [3], the “fluorescence intensity at different viscosity conditions” value is given as “gradually increasing fluorescence intensity”. In data set [4], the “fluorescence of cells expressing the RNA aptamer” value was “bright fluorescence” and the “fluorescence of cells not expressing the RNA aptamer” value is listed as “no fluorescence”. Further, in data set [1], the “Glycerin/Methanol Fluorescence Intensity Ratio” value is given as 890 and the “Maximum Excitation Wavelength (nm)” value is 595 nm.
In the case of `CN1C(=O)/C(=C/c2ccc(N)cc2)N=C1/C=C/c1ccc(C#N)cc1` [IV-35], in data set [1], the “Glycerin/Methanol Fluorescence Intensity Ratio” value is listed as 776 and the “Maximum Excitation Wavelength (nm)” value was found to be 561 nm.
The matching figures for `O=C1NC(/C=C/c2ccc(Br)cc2)=NC/1=C\c1cc(Cl)c(O)c(Cl)c1` [IV-16]: 689 and 595 nm.
For `CC1=CC(C)(C)N(C)c2ccc(/C=C3N=C(/C=C/c4ccc(C#N)cc4)N(C)C\3=O)cc21` [IV-33], in data set [1], the “Glycerin/Methanol Fluorescence Intensity Ratio” value is on record as 729 and the “Maximum Excitation Wavelength (nm)” value is listed as 605 nm.
The matching figures for `COCCOCCOCCOCC(=O)OCCN(C)c1ccc(/C=C2N=C(/C=C/c3ccc(C#N)cc3)N(C)C\2=O)cc1` [IV-29]: 829 and 618 nm.
For `CN1C(=O)/C(=C/c2ccc(N(C)CCS(=O)(=O)O)cc2)N=C1/C=C/c1ccc(C#N)cc1` [IV-28], in that order: 942 and 620 nm.
The matching figures for `CCN1C(=O)/C(=C/c2ccc(O)c(Cl)c2)N=C1/C=C/c1ccc(I)cc1` [IV-14]: 699 and 585 nm.
As to `CCN1C(=O)/C(=C/c2cc(F)c(O)c(Cl)c2)N=C1/C=C/c1ccc(C#N)cc1` [IV-10], in data set [1], the “Glycerin/Methanol Fluorescence Intensity Ratio” value was determined as 779 and the “Maximum Excitation Wavelength (nm)” value is listed as 620 nm.
The matching figures for `CN1C(=O)/C(=C/c2cc(Cl)c(O)c(Cl)c2)N=C1/C=C/c1ccc(Br)cc1` [IV-13]: 711 and 590 nm.
For `CN1C(=O)/C(=C/c2ccc(O)c(Br)c2)N=C1/C=C/c1cccc(Cl)c1` [IV-15], in that order: 730 and 586 nm.
Consider `CN1C(=O)/C(=C/c2ccc(N(C)CCO)cc2)N=C1/C=C/c1ccc(F)cc1` [IV-22], for which, in data set [2], the Em/nm stood at 580 nm, the Ex/nm was found to be 522 nm, the “ε” value was determined as 32000 M⁻¹ cm⁻¹ and the “QY (−)” value is recorded as 0.46. Moreover, the “compound fluorescence after binding” value in data set [2] is “noticeably activated”. Further, the “fluorescence intensity at different viscosity conditions” value in data set [3] is “gradually increasing fluorescence intensity”. Besides, in data set [4], the “fluorescence of cells expressing the RNA aptamer” value was “bright fluorescence” and the “fluorescence of cells not expressing the RNA aptamer” value is listed as “no fluorescence”. In data set [1], the “Glycerin/Methanol Fluorescence Intensity Ratio” value is recorded as 689 and the “Maximum Excitation Wavelength (nm)” value is on record as 580 nm.
As for `CN1C(=O)/C(=C/c2cc(F)c(O)c(F)c2)N=C1/C=C/c1ccc(O)cc1` [IV-3], in data set [2], the Em/nm is 565 nm, the Ex/nm stood at 490 nm, the “ε” value was 26000 M⁻¹ cm⁻¹ and the “QY (−)” value is 0.27. For the same compound, in data set [2], the “compound fluorescence after binding” value is “noticeably activated”. Further, the “fluorescence intensity at different viscosity conditions” value in data set [3] is listed as “gradually increasing fluorescence intensity”. Further, in data set [4], the “fluorescence of cells expressing the RNA aptamer” value is recorded as “bright fluorescence” and the “fluorescence of cells not expressing the RNA aptamer” value is recorded as “no fluorescence”. Moreover, in data set [1], the “Glycerin/Methanol Fluorescence Intensity Ratio” value is 951 and the “Maximum Excitation Wavelength (nm)” value is recorded as 565 nm.
As to `CN1C(=O)/C(=C/c2cc(F)c(O)c(F)c2)N=C1/C=C/c1ccc(F)cc1` [IV-5], in data set [2], the Em/nm was found to be 570 nm, the Ex/nm is recorded as 492 nm, the “ε” value was 23000 M⁻¹ cm⁻¹ and the “QY (−)” value is given as 0.33. In data set [2], the “compound fluorescence after binding” value is listed as “noticeably activated”. Moreover, in data set [3], the “fluorescence intensity at different viscosity conditions” value is “gradually increasing fluorescence intensity”. Moreover, in data set [4], the “fluorescence of cells expressing the RNA aptamer” value was “bright fluorescence” and the “fluorescence of cells not expressing the RNA aptamer” value was “no fluorescence”. For the same compound, in data set [1], the “Glycerin/Methanol Fluorescence Intensity Ratio” value stood at 861 and the “Maximum Excitation Wavelength (nm)” value is 570 nm.
With `CN1C(=O)/C(=C/c2ccc(N(C)CCO)cc2)N=C1/C=C/c1ccc(O)cc1` [IV-20], in data set [2], the Em/nm is listed as 577 nm, the Ex/nm is reported as 512 nm, the “ε” value came to 25500 M⁻¹ cm⁻¹ and the “QY (−)” value was 0.36. Also, the “compound fluorescence after binding” value in data set [2] is reported as “noticeably activated”. Also, in data set [3], the “fluorescence intensity at different viscosity conditions” value is listed as “gradually increasing fluorescence intensity”. In addition, in data set [4], the “fluorescence of cells expressing the RNA aptamer” value is “bright fluorescence” and the “fluorescence of cells not expressing the RNA aptamer” value was “no fluorescence”. In data set [1], the “Glycerin/Methanol Fluorescence Intensity Ratio” value was 781 and the “Maximum Excitation Wavelength (nm)” value amounted to 577 nm.
Regarding `CN1C(=S)/C(=C/c2cc(F)c(O)c(F)c2)N=C1/C=C/c1ccc(F)cc1` [IV-7], in data set [1], the “Glycerin/Methanol Fluorescence Intensity Ratio” value is 873 and the “Maximum Excitation Wavelength (nm)” value was 570 nm.
The matching figures for `C#CCOCCN(C)c1ccc(/C=C2N=C(/C=C/c3ccc(F)cc3)N(C)C\2=O)cc1` [IV-37]: 801 and 580 nm.
The matching figures for `CCCN1C(=O)/C(=C/c2cc(F)c(O)c(I)c2)N=C1/C=C/c1ccc(Cl)cc1` [IV-12]: 898 and 573 nm.
As for `CCCN1C(=S)/C(=C/c2ccc(N(C)C)nc2)N=C1/C=C/c1ccccc1F` [IV-24], in data set [1], the “Glycerin/Methanol Fluorescence Intensity Ratio” value is listed as 934 and the “Maximum Excitation Wavelength (nm)” value is 551 nm.
Regarding `CN1C(=O)/C(=C/c2cnc(N(C)CCC#N)nc2)N=C1/C=C/c1ccccc1I` [IV-26], in data set [1], the “Glycerin/Methanol Fluorescence Intensity Ratio” value was found to be 937 and the “Maximum Excitation Wavelength (nm)” value is given as 555 nm.
The matching figures for `C=CCOCCN(C)c1ccc(/C=C2N=C(/C=C/c3ccccc3C#N)N(C)C\2=S)cc1` [IV-23]: 915 and 617 nm.
Regarding `CN(C)CCN(C)c1ccc(/C=C2N=C(/C=C/c3cccc(F)c3)N(C)C\2=O)cc1` [IV-32], in data set [1], the “Glycerin/Methanol Fluorescence Intensity Ratio” value was found to be 999 and the “Maximum Excitation Wavelength (nm)” value was determined as 580 nm.
